Test results published in patent publication US10604739B2, “Cardiomyocyte production” (Cellular Dynamics International, Inc., priority 2009, dated 2020).
“And” between values parts separate entries of the source, which are not always exact repeats. Equal entries are not always repeated.

How the values were obtained:
iPS 6.1 and iPS 6.1 MRB = experiment: iPS cell passaging with NaCitrate in Double Stacks; type: cell-based, human
Experimental: Dissociated iPS cells were rinsed with D-PBS (Dulbecco's Phosphate Buffered Saline) free of Ca^2+ and Mg^2+ and the media were aspirated. The cells were then incubated with appropriate amount (i.e., 1 mL for one well of 6-well plate, 15 mL for T-150 flask, etc) of 15 mM NaCitrate, 165 mM KCl, pH 7.3, OSM 340, at room temperature for 6-15 minutes. After incubation, the NaCitrate solution were aspirated with the cells still loosely attached. The cells were resuspended in appropriate amount of TeSR with 1 μM H1152 and distributed to Matrigel™ surfaced vessel.
For scale up production of the starting material from T150 flasks to Corning Double Stacks, and for assessment of the ability of iPS cells to be passaged as single cells/small clumps with NaCitrate, iPS 6.1 and iPS 6.1 MRB were passaged with 15 mM NaCitrate as single cells or small cell clumps into double stacks while maintaining T150 control flasks split with dispase (see FIG. 1 for experimental design). […] Cells were assessed at passage 4 and passage 7 with cardiogenesis, pluripotency panel, and karyotype. […] Aggregate images and cTnT staining for cardiomyocytes were analyzed on day 14 after splitting (FIGS. 4A-D, FIGS. 5A-C, FIGS. 6A-B, FIGS. 7A-C). Pluripotency profiles of iPS cells after passaging with NaCitrate and dispase was compared by flow cytometry using five pluripotency markers (FIGS. 8A-C). It appears safe to passage iPS cells at least four times with the NaCitrate method.
Cardiogenesis was also analyzed for those iPS cells after passaging with NaCitrate and data were compiled in FIG. 9. […] The last three “spinner” samples come from Double Stack iPS 6.1 MRB cells that were left over from various Double stack harvests. An average yield of 110e6 cells/L was obtained in 1 L spinner with cells passaged in double stacks with NaCitrate.

ROCK2 = details: ROCK1/ROCK2; cited from earlier work
[1] = system: pluripotent stem cell-derived cardiomyocytes; details: cited from earlier work
iPS6.1 cells [2] = experiment: iPS6.1 Four Corners experiment, FGF x HGF cardiac induction; type: cell-based, human; details: iPS6.1 cells, 25 ng/mL FGF and/or 50 ng/mL HGF, single T25 flask, day 14; listed as FGF only
Experimental: (§1) Aggregate formation and cardiac induction procedures of those iPS cells at different initial densities were performed essentially the same as described in Examples 4 except different concentrations of human HGF (hHGF) and FGF were applied to Aggregate Formation Medium, Aggregate Transition Medium and Cardiac Induction Medium.
Concurrent with the second iPS growth factor titration, a simple experiment (Table 19) was set up with iPS6.1 cells to test the 2×2 matrix of 0 and 25 ng/mL FGF and 0 and 50 ng/mL HGF. The positive concentrations of FGF and HGF were chosen based on the current best practices for iPS6.1 cells at the time and were identical to the conditions used for cardiac induction of H1 cells in both the plated and suspension processes. This experiment confirmed previous work showing the necessity of FGF for the process.

iPS6.1 cells [3] = experiment: iPS6.1 Growth Factor Titration #1; type: cell-based, human; details: hbFGF 0 or 25 ng/mL, FIGS. 29A-B
Experimental: as §1
Conditions without FGF had virtually no surviving aggregates and no measurable cardiomyocytes (FIGS. 29A-B). On the other hand, all conditions with FGF yielded cardiomyocytes independent of HGF concentration (FIGS. 29A-B).

iPS6.1 cells [4] = experiment: iPS6.1 Growth Factor Titration #2; type: cell-based, human; details: hbFGF 3-100 ng/mL, FIGS. 30A-B
Experimental: as §1
Based on the results of the first experiment (see FIGS. 29A-B), the second iPS6.1 growth factor titration focused on the lower dose range for both FGF and HGF (FIGS. 30A-B). […] However, it is important to note that in no case did the omission of HGF lead to the failure of a condition which was otherwise successful in the presence of HGF.

H9-TGZ cells = experiment: H9-TGZ Growth Factor Titration #2; type: cell-based, human; details: FIGS. 31A-C
Experimental: as §1
While the iPS6.1 optimization was underway, a separate series of experiments was conducted to optimize the growth factor concentrations for the H9-TGZ cells. […] Therefore, the FGF range tested was higher than that in the recent iPS6.1 experiments. This experiment confirmed that optimum cardiomyocyte production requires 100-150 ng/mL FGF with the H9-TGZ cells (FIGS. 31A-C).

With O=C([O-])CC(O)(CC(=O)[O-])C(=O)[O-].[Na+].[Na+].[Na+] [NaCitrate] the “Average yield of cardiomyocytes” value (iPS 6.1 and iPS 6.1 MRB; 1 L spinner, cells passaged in double stacks with NaCitrate) was 110e6 cells/L, the Doubling time (iPS 6.1 and iPS 6.1 MRB; Double Stack NaCitrate conditions, 15 mM NaCitrate) was roughly 30 h and the Karyotype (iPS 6.1 and iPS 6.1 MRB; cells split 4 times with NaCitrate) was “maintained a normal karyotype”.
In the case of COc1ccc([C@@H]2Sc3ccccc3N(CCN(C)C)C(=O)[C@@H]2OC(C)=O)cc1 [diltiazem], the Contractile activity [1] is listed as “inhibits contractile activity in a dose-dependent manner”.
For CC(C)NCC(O)c1ccc(O)c(O)c1 (centres unmarked) [isoprenaline], the Chronotropic effect [1] is listed as “positive chronotropic effect”.
For CNC[C@H](O)c1cccc(O)c1 [phenylephrine], the Chronotropic effect [1] is given as “positive chronotropic effect”.
With “FGF: human recombinant basic FGF, R&D systems” the “% cTNT+” value (iPS6.1 cells [2]) was 11.2% and 11.9% and 13.1%, the “Requirement for CM differentiation process” value (iPS6.1 cells [3]) was “required for the CM differentiation process to be successful” and the “FGF dose response (aggregate survival, cardiogenesis)” value (iPS6.1 cells [4]) was “too little FGF led to poor aggregate survival and high doses had survival but lacked cardiogenesis”. For the same compound, the “FGF concentration required for optimum cardiomyocyte production” value (H9-TGZ cells) was 100 to 150 ng/mL.
